Where only a bound is given, the exact number is not on record here.

One test has as its system IL-1β production in PMA-differentiated THP-1 cells. The test can be described thus: IL-1β production in PMA-differentiated THP-1 cells stimulated with gramicidin (hTHP-1 assay, 2% bovine serum). The note with it: Homo sapiens, THP-1; hTHP-1 assay containing 2% bovine serum; Table 13, by Example #. The class given is cell-based, human. The method, then:
The following protocols are suitable for testing the activity of the compounds dislcosed herein. Bioassay 1:
IL-1β Production in PMA-Differentiated THP-1 Cells Stimulated with Gramicidin.
Cell culture-THP-1 cells were purchased from the American Type Culture Collection and sub-cultured according to instructions from the supplier. Prior to experiments, cells were cultured in RPMI 1640 containing 10% heat inactivated FBS, penicillin (100 units/ml) and streptomycin ([…]), and maintained in log phase prior to experimental setup. Prior to the experiment THP-1 were treated with PMA (Phorbol 12-myristate 13-acetate) ([…]) for 24 hours. The day of the experiment the media was removed and attaching cells were treated with trypsin for 2 minutes, cells were then collected, washed with PBS (phosphate buffer saline), spin down, resuspended in 2% heat inactivated FBS with RPMI at a concentration of 1×10^6 cells/ml, and 100 ul was plated in a 96 well plate. Cells were incubated with compounds for 1 hours and then stimulated with Gramicidin (5 μM) (Enzo) for 2 hours. Cell free supernatant was collected and the production of […] was evaluated by ELISA. Compounds were dissolved in dimethyl sulfoxide (DMSO) and added to the culture medium to achieve desired concentration (e.g. 100, 30, 10, 3, 1, 0.3 or 0.1 μM). A vehicle only control was run concurrently with each experiment. Final DMSO concentration was 1%.
THP-1 cells were purchased from the American Type Culture Collection and sub-cultured according to instructions from the supplier. Prior to experiments, cells were cultured in complete RPMI 1640 (containing 10% heat inactivated FBS, penicillin (100 units/ml) and streptomycin ([…])), and maintained in log phase prior to experimental setup. Prior to the experiment THP-1 were treated with PMA (Phorbol 12-myristate 13-acetate) (20 ng/ml) for 16-18 hours. On the day of the experiment the media was removed and adherent cells were detached with trypsin for 5 minutes. Cells were then harvested, washed with complete RPMI 1640, spun down, resuspended in RPMI 1640 (containing 2% heat inactivated FBS, penicillin (100 units/ml) and streptomycin ([…]). The cells were plated in a 384-well plate at a density of 50,000 cells/well (final assay volume […]). Compounds were dissolved in dimethyl sulfoxide (DMSO) and added to the culture medium to achieve desired concentration (e.g. 100, 33, 11, 3.7, 1.2, 0.41, 0.14, 0.046, 0.015, 0.0051, […]). Cells were incubated with compounds for 1 hour and then stimulated with gramicidin (5 μM) (Enzo) for 2 hours. Cell free supernatant was collected and the production of IL-1 was evaluated by HTRF (cisbio). A vehicle only control was run concurrently with each experiment. Final DMSO concentration was 0.38%.
Compounds tested with protocols 1 and 2 provided IC50 values that are within the variability of the assay.
Tables 13 and 14 show the biological activity of compounds in hTHP-1 assay containing 2% bovine serum: <1 μM=“++++”; ≥1 and <5 μM=“+++”; ≥5 and <15 μM=“++”; ≥15 and <60 μM=“+”.
With `CCc1cc(C(C)C)c(CC(=O)NS(=O)(=O)c2ccc(CN(C)C)cc2)c(C(C)C)c1` [Example 97, N-((4-((dimethylamino)methyl)phenyl)sulfonyl)-2-(4-ethyl-2,6-diisopropylphenyl)acetamide], the IC50 was in the range of 5 to 15 µM.
Still for that read-out and setting: the same measure for `CC(C)(O)c1csc(S(=O)(=O)NC(=O)Cc2c3c(cc4c2CCC4)CCC3)c1` [Example 7, 2-(1,2,3,5,6,7-hexahydros-indacen-4-yl)-N-(4-(2-hydroxypropan-2-yl)thiophen-2-ylsulfonyl)acetamide]: 5 to 15 µM.

Staying with this test, now noted: Homo sapiens, THP-1; hTHP-1 assay containing 2% bovine serum; Table 14, by Final Target Number.
In turn, `CNC(=O)c1ccc(S(=O)(=O)NC(=O)Cc2c(C(C)C)cc(C#N)c(F)c2C(C)C)cc1O` [Compound 402] showed an IC50 of 15 to 60 µM.
For the compound `CC(C)c1cc(C#N)c(F)c(C(C)C)c1CC(=O)NS(=O)(=O)c1cnc(C(C)(C)O)nc1` [Compound 406], the IC50 was 5 to 15 µM.
Regarding `CC(C)c1cc(C#N)c(F)c(C(C)C)c1CC(=O)NS(=O)(=O)c1cc(C(C)(C)O)no1` [Compound 416], the IC50 was under 1 µM.
The compound `CC(C)c1cc(C#N)c(F)c(C(C)C)c1CC(=O)NS(=O)(=O)c1cnc(C(C)(O)CO)s1` (centres unmarked) [Compound 401] registered a 50% inhibitory concentration (IC50) of 1 to 5 µM.
In turn, `CC(C)c1cc(C#N)cc(C(C)C)c1CC(=O)NS(=O)(=O)c1cnc(C(C)(C)O)nc1` [Compound 409] displayed an IC50 of 5 to 15 µM.
Still for that read-out and setting: the same measure for `CNS(=O)(=O)c1ccc(S(=O)(=O)NC(=O)Cc2c(C(C)C)cc(C#N)c(F)c2C(C)C)c(Cl)c1` [Compound 404]: under 1 µM; for `CC(C)c1cc(C#N)c(F)c(C(C)C)c1CC(=O)NS(=O)(=O)c1cccc(-n2cc(CNC(=O)OC(C)(C)C)nn2)c1` [Compound 407]: 15 to 60 µM.
Same read-out and setting: for `CC(C)c1cc(C#N)c(F)c(C(C)C)c1CC(=O)NS(=O)(=O)c1cnc(C(C)(O)CO[C@@H]2O[C@H](CO)[C@@H](O)[C@H](O)[C@H]2O)s1` (some centres unmarked) [Compound 405] the value was 5 to 15 µM.

The same test, now with this note: Homo sapiens, THP-1; hTHP-1 assay containing 2% bovine serum; Table 14, given as a numeric bound.
In the case of `CC(C)c1cc(C#N)c(F)c(C(C)C)c1CC(=O)NS(=O)(=O)c1cccc(NC(=O)CCc2cn(CCNC(=O)OC(C)(C)C)nn2)c1` [Compound 408], the IC50 was over 30 µM.
Take `CC(C)c1cc(F)cc(C(C)C)c1CC(=O)NS(=O)(=O)c1ccc(C(C)N(C)C(=O)CCc2cn(CCOCCOCCOCCNC(=O)CCCC[C@@H]3SC[C@@H]4NC(=O)N[C@@H]43)nn2)cc1` (some centres unmarked) [Compound 415]: the IC50 is over 30 µM.
Same read-out and setting: for `CC(C)c1cc(F)cc(C(C)C)c1CC(=O)NS(=O)(=O)c1ccc([C@H](C)N(C)C(=O)CCc2cn(CCOCCOCCOCCNC(=O)CCCC[C@H]3SC[C@@H]4NC(=O)N[C@@H]43)nn2)cc1` [Compound 411] the value was over 30 µM; for `CC(C)c1cc(C2(C(F)(F)F)N=N2)cc(C(C)C)c1CC(=O)NS(=O)(=O)c1ccc(CN(C)C(=O)CCCN(C)C(=O)CCOCCOCCOCCOCCNC(=O)CCCC[C@H]2SC[C@@H]3NC(=O)N[C@@H]32)cc1` [Compound 412], over 30 µM; for `CC(C)c1cc(F)cc(C(C)C)c1CC(=O)NS(=O)(=O)c1ccc([C@@H](C)N(C)C(=O)CCc2cn(CCOCCOCCOCCNC(=O)CCCC[C@@H]3SC[C@@H]4NC(=O)N[C@@H]43)nn2)cc1` [Compound 410], over 30 µM.

Still in this test, the particulars now being: hTHP-1 assay containing 2% bovine serum; Table 13, by Example #.
The compound `CC(=O)c1ccc(F)c(S(=O)(=O)NC(=O)Cc2c(C(C)C)cc(F)cc2C(C)C)c1` [Example 55] gave an IC50 of 1 to 5 µM.
Same read-out and setting: the same measure for “N-(4-pentafluorophenylsulfonyl)-2-(4-fluoro-2,6-diisopropylphenyl)acetamide [Example 39]”: 15 to 60 µM.

The term IC50 denotes the concentration needed to halve the response being measured. Low readings indicate inhibition by little substance, high ones a need for much substance.

The values above are taken from US20220387397A1, “COMPOUNDS AND COMPOSITIONS FOR TREATING CONDITIONS ASSOCIATED WITH NLRP ACTIVITY” (Novartis AG, priority 2018, published 2022).
